For orientation: MIC means the least concentration at which growth counts as inhibited. Lower therefore signals greater potency.

Read-outs that look alike come from different tables or passages of the source. No end group written: not given here.

This is an account of results in publication PMC10487658, “Identification and Characterization of RK22, a Novel Antimicrobial Peptide from Hirudinaria manillensis against Methicillin Resistant Staphylococcus aureus” (International Journal of Molecular Sciences, 2023).

One data set concerns E. coli, ATCC25922. In kind it is cell-based, Escherichia coli. The following applies: E. coli ATCC25922; RPMI 1640, 37 °C, 12–16 h, absorbance at 600 nm.
A further data set deals with washed platelets. Description: Platelet activity assay, flow cytometry. In kind it is cell-based. The following applies: mouse washed platelets, 20, 10, 5, 2.5 μg/mL, 10 min, P-selectin. On the procedure:
Platelets were isolated from the mice as described in a previous study with minor modifications. The effect of RK22 and LL-37 on platelet activity was detected by flow cytometry. Mouse blood was mixed with Tyrode’s buffer A (137 mM NaCl, 2 mM KCl, 0.3 mM NaH2PO4, 12 mM NaHCO3, 5.5 mM glucose, 0.35% BSA, 1 mM MgCl2, and 0.2 mM EDTA, pH 6.5) and centrifuged (150× g, 10 min, room temperature) to obtain platelet-rich plasma (PRP), which was then pelleted (400× g, 5 min, room temperature), washed with Tyrode’s buffer A, and finally resuspended in Tyrode’s buffer B (137 mM NaCl, 2 mM KCl, 0.3 mM NaH2PO4, 12 mM NaHCO3, 5.5 mM glucose, 0.35% BSA and 2 mM CaCl2, pH 7.4). Antibodies against P-selectin (Biolegend, San Diego, CA, USA) were added to the platelets, followed by incubation for 10 min at room temperature. Samples (20, 10, 5, and 2.5 μg/mL) or normal saline were added, respectively, and analyzed by flow cytometry (BD, LSRFortessa^TM, Franklin Lakes, NJ, USA).
A general note: A flow cytometer gives signals particle by particle.

A further data set deals with C57BL/6 mice. In kind it is in vivo, mouse. The following applies: male C57BL/6 mice, 96 h; for survival: n = 8. The method, then:
Male C57BL/6 mice (6–8 weeks of age) were randomly divided into three groups of eight mice per group. Either normal saline or RK22 (20 and 40 mg/kg) was injected intravenously via the tail vein. […] For histopathological analysis, sections of lung, liver, spleen, and kidney were fixed with 4% paraformaldehyde, embedded in paraffin wax, and stained with hematoxylin and eosin (H&E).
Figure S2. In vivo acute toxicity of RK22. Male C57BL/6 mice (6–8 weeks of age, n = 8 /group) were injected intravenously via the tail vein with saline or RK22 (20 and 40 mg/kg). Mice were observed for survival status within 96 h of the injection (A) and blood was collected via retro-orbital bleeding for routine blood analysis (B-E). The sections of lung, liver, spleen and kidney were stained […]
(1 picture or pasted object on this page, not shown here)

In the case of RKYKEKKDKSQNKKKKRKCMIL [RK22], the MIC against E. coli, ATCC25922 amounted to 25 µg/mL. Further, in the data set with washed platelets, the platelet activation result is reported as “did not exert any such effects”. For the same sequence, in the data set on C57BL/6 mice (20 and 40 mg/kg iv), the “hemoglobin (HGB)” value is reported as “did not induce any changes”; the “histopathological analysis (H&E) of lung, liver, spleen and kidney” value was “no obvious tissue injury”; the platelets entry is listed as “did not induce any changes”; the red blood cells result is “did not induce any changes”. Also, in the data set with C57BL/6 mice (20 and 40 mg/kg iv), the white blood cells result is listed as “did not induce any changes”. For the same sequence, in the data set on C57BL/6 mice (single dose 20 mg/kg intravenously via the tail vein), the survival result was “did not result in any fatalities”. Further, the survival result with C57BL/6 mice (single dose 40 mg/kg intravenously via the tail vein) is “did not result in any fatalities”.
